Measured values as given in patent US9758524B2, “4-imidazopyridazin-1-yl-benzamides as Btk inhibitors” (Merck Sharp & Dohme B.V., priority 2011, dated 2017).
Where “and” joins values, the source holds several entries; their conditions need not be identical. Equal entries are not always repeated. Where two headings read alike, the source gives them in different places.

What was measured:
[1] = target: FynT enzyme (Homo sapiens (Human), UniProt P06241); assay: FynT enzyme activity (IMAP fluorescence polarization assay); type: biochemical; conditions: 60 min pre-incubation, 0.2 μM ATP
FynT enzyme, sequence (P06241 other isoform, or with tags, fused parts or gaps): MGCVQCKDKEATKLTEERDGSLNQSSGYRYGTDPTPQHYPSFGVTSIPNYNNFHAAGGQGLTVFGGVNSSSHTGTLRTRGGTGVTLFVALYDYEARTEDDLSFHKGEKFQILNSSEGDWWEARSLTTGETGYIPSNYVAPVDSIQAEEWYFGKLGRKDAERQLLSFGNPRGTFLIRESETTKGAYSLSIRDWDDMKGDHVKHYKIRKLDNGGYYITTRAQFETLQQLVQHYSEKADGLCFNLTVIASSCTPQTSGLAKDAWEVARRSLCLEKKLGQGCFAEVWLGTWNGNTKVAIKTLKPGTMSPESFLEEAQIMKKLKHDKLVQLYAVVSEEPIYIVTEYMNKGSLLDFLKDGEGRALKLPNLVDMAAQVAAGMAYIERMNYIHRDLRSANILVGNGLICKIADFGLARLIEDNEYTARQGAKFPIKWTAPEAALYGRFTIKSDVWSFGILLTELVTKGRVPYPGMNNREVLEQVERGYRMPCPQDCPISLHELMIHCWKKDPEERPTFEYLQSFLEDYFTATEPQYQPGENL
Method in brief: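 Human FynT pre-incubated with compounds 60 min at room temperature, then reacted 2 h at room temperature with fluorescein-labelled p34cdc2 peptide (100 nM final). Stopped with IMAP binding solution; fluorescence polarization read after 60 min. Activity as % of ±ATP control difference; EC50 by curve fitting.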

[2] = target: Lyn enzyme (Homo sapiens (Human), UniProt P07948); assay: Lyn enzyme activity (IMAP fluorescence polarization assay)
Lyn enzyme, sequence (P07948 whole entry): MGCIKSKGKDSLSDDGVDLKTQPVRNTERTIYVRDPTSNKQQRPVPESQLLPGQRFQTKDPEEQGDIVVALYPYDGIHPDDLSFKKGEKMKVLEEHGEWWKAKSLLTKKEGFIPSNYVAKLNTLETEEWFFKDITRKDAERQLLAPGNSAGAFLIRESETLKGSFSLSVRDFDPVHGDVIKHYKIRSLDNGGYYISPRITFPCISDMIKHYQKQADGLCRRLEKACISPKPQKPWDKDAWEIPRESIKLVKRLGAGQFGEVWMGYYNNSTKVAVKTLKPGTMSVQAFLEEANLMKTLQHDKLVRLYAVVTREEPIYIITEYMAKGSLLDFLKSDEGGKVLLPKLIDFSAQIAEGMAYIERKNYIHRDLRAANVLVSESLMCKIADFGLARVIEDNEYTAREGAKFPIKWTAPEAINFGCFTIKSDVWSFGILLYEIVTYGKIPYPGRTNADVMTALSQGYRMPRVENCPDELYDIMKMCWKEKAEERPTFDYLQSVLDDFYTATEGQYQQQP

[3] = target: Src enzyme (Homo sapiens (Human), UniProt P12931); assay: Src enzyme activity (IMAP fluorescence polarization assay); conditions: read-out: EC50 Src activity values; IMAP, 60 min pre-incubation, 4 μM ATP
Src enzyme, sequence (P12931 whole entry, looked up): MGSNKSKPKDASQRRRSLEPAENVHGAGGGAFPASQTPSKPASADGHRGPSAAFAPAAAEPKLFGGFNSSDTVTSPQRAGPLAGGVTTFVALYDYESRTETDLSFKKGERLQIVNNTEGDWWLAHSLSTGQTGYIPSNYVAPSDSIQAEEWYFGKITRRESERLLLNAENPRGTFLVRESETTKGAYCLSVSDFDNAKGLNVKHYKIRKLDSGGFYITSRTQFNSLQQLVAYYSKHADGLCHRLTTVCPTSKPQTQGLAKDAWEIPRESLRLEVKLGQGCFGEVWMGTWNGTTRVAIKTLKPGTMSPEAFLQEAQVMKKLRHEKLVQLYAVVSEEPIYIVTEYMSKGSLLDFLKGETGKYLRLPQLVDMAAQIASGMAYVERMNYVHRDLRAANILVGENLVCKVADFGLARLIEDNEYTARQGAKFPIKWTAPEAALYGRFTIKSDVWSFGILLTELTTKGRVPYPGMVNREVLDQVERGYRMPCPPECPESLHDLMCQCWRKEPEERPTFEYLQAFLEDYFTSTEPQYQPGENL

[4] = target: Lck enzyme (Homo sapiens (Human), UniProt P06239); assay: Lck enzyme activity (IMAP fluorescence polarization assay)
Lck enzyme, sequence (P06239 whole entry): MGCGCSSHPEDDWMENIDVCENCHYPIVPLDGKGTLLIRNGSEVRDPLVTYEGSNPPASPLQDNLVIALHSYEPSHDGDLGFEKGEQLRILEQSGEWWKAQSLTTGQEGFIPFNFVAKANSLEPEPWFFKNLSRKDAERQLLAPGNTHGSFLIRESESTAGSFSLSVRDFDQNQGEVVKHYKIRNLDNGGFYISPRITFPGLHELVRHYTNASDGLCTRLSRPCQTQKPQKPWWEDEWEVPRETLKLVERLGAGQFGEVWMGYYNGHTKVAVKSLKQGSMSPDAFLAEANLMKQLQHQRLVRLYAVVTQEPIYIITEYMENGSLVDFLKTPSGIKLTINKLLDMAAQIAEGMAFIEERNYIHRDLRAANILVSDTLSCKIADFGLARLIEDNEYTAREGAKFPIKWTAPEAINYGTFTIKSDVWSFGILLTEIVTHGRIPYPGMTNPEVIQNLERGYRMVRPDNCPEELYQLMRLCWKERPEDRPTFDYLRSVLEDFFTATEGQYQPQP

[5] = target: Btk enzyme (His-Btk) (Homo sapiens (Human), UniProt Q06187); assay: Btk enzyme activity (IMAP fluorescence polarization assay)
Btk enzyme (His-Btk), sequence (Q06187 whole entry): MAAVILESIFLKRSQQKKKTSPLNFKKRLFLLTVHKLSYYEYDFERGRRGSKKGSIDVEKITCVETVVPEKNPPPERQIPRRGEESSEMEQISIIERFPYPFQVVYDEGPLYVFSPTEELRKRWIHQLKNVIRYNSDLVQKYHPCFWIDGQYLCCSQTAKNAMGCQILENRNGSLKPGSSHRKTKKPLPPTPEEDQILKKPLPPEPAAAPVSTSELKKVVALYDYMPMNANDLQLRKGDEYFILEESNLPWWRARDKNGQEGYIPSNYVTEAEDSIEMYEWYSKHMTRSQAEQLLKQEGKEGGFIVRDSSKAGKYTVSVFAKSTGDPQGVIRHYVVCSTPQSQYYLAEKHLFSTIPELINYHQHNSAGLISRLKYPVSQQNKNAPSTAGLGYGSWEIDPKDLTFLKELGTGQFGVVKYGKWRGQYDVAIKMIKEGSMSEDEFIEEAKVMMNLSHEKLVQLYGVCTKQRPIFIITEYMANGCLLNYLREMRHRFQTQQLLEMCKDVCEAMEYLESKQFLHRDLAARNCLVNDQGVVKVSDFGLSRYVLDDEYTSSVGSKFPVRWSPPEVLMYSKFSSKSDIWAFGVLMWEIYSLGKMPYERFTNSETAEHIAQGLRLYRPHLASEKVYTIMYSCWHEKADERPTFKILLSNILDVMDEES

[6] = read-out: EC50 Lyn activity values, 60 min pre-incubation, 2 μM ATP, bin bound in μM
[7] = read-out: EC50 Lck activity values, IMAP, 60 min pre-incubation, 6 μM ATP, bin bound in μM
[8] = IMAP, 60 min pre-incubation, 5 μM ATP, bin bound in μM
[9] = read-out: EC50 Btk activity values, IMAP, 60 min pre-incubation, 5 μM ATP, bin bound in nM

| SMILES | EC50 [1] [nM] | EC50 [2, 6] [µM] | EC50 [3] [nM] | EC50 [4, 7] [µM] | EC50 [5] [nM] | EC50 Btk activity values [5, 8] [µM] | EC50 [5, 9] [nM] | EC50 ([2]; EC50 Lyn activity values, 60 min pre-incubation, 2 μM ATP, bin bound in nM) [µM] | EC50 ([2]; EC50 Lyn activity values, 60 min pre-incubation, 2 μM ATP, bin bound in μM) | EC50 [4] [µM] | EC50 Lck activity values ([4]; IMAP, 60 min pre-incubation, 6 μM ATP, bin bound in μM) [µM] | EC50 Btk activity values ([5]; IMAP, 60 min pre-incubation, 5 μM ATP, bin bound in nM) [µM] |
| --- | --- | --- | --- | --- | --- | --- | --- | --- | --- | --- | --- | --- |
| C=C(C(=O)N1CCC[C@H]1c1nc(-c2ccc(C(=O)Nc3ccccn3)cc2)c2c(N)nccn12)C(F)(F)F [Example 92, (S)-4-(8-amino-3-(1-(2-(trifluoromethyl)acryloyl)pyrrolidin-2-yl)imidazo[1,5-a]pyrazin-1-yl)-N-(pyridin-2-yl)benzamide] | ≥ 1000 | ≥ 1 | ≥ 1000 | ≥ 1 | 100 to 1000 | <1 |  |  |  |  |  |  |
| CC#CC(=O)N1CCCC[C@H]1c1nc(-c2ccc(C(=O)Nc3ccncn3)cc2)c2c(N)nccn12 [Example 22, (S)-4-(8-Amino-3-(1-but-2-ynoylpiperidin-2-yl)imidazo[1,5-a]pyrazin-1-yl)-N-(pyrimidin-4-yl)benzamide] | ≥ 1000 | ≥ 1 | ≥ 1000 | ≥ 1 |  |  | < 10 |  |  |  |  |  |
| COC/C=C/C(=O)N1CCCC[C@H]1c1nc(-c2ccc(C(=O)Nc3ccon3)cc2)c2c(N)nccn12 [Example 54, (S,E)-4-(8-amino-3-(1-(4-methoxybut-2-enoyl)piperidin-2-yl)imidazo[1,5-a]pyrazin-1-yl)-N-(isoxazol-3-yl)benzamide] | ≥ 1000 | ≥ 1 | ≥ 1000 | ≥ 1 | 100 to 1000 | <1 |  |  |  |  |  |  |
| CN(C)C/C=C/C(=O)N1CCCC[C@H]1c1nc(-c2ccc(C(=O)Nc3ccccn3)cc2)c2c(N)nccn12 [Example 78, (S,E)-4-(8-amino-3-(1-(4-(dimethylamino)but-2-enoyl)piperidin-2-yl)imidazo[1,5-a]pyrazin-1-yl)-N-(pyridin-2-yl)benzamide] | ≥ 1000 | ≥ 1 | ≥ 1000 | ≥ 1 |  |  | < 10 |  |  |  |  |  |
| CC#CC(=O)N1CCC[C@H]1c1nc(-c2ccc(C(=O)Nc3nccs3)cc2)c2c(N)nccn12 [Example 60, (S)-4-(8-amino-3-(1-but-2-ynoylpyrrolidin-2-yl)imidazo[1,5-a]pyrazin-1-yl)-N-(thiazol-2-yl)benzamide] | ≥ 1000 |  | ≥ 1000 |  | 10 to 100 |  |  | ≥ 0.1 | < 1 µM and ≥ 1 µM | 0.1 to 1 | <1 | <0.1 |
| CCCc1ccnc(NC(=O)c2ccc(-c3nc([C@@H]4CCCN4C(=O)/C=C/COC)n4ccnc(N)c34)c(C)c2)c1 [Example 87, 4-(8-amino-3-((S)-1-((E)-4-methoxybut-2-enoyl)pyrrolidin-2-yl)imidazo[1,5-a]pyrazin-1-yl)-3-methyl-N-(4-propylpyridin-2-yl)benzamide] | ≥ 1000 | ≥ 1 | ≥ 1000 | ≥ 1 | 100 to 1000 | <1 |  |  |  |  |  |  |
